Laboratory results from patent publication US20160297828A1, “SPIROCYCLIC COMPOUNDS CONTAINING SPIRO[INDOLYL-3,1'-PYRROLO[3,4-C]PYRROLE] CORE AND SULPHUR-CONTAINING AMINO ACID RESIDUES” (priority 2013, published 2016).
“And” between values parts separate entries of the source, which are not always exact repeats. Equal values may be shown once. Marks after values point to notes of the source that are not given here.

Assays:
rats [1] = experiment: Acute normobaric hypoxic hypoxia with hypercapnia (ANHHH), life duration; assay type: in vivo; conditions: preventive administration; SI-86 and SI-108 10 mg/kg iv, mexydol 100 mg/kg ip
Description: The study of antihypoxic activity of 10 original derivatives of 3,2′-spiro-pyrrolo-2-oxindole was conducted on models of acute normobaric hypoxic hypoxia with hypercapnia (ANHHH) and acute asphyxia. ANHHH was modeled by means of rat arrangement into isolated pressure compartments (0.001 m^3). The observation conducted until the death of the animals. The antihypoxic activity was assessed by life duration (in minutes) in relation to the control taken as 100%, by the formula AA=tt/tk×100%, wherein AA—antihypoxic activity (%), tt—life duration of test animals, tc—life duration of control animals.
The preliminary screening of test substances was performed on ANHHH model. All derivatives were administered in the same dose of 10 mg/kg […] (iv) 1 hour prior to pathological state modeling. […] The effectiveness of a leader compound was evaluated at doses 5; 10 and 15 mg/kg iv. Mexydol was chosen as a reference drug having antihypoxic action in combination with antioxidant and membrane protective activity, which is successfully used in patients with CVA and IM. Mexydol was administered intraperitoneally (ip) at a dose of 100 mg/kg according to similar scheme.

[2] = tested on: neuron-specific enolase (NSE); experiment: Neuron-specific enolase (NSE) activity in rats with intracerebral hemorrhage (ELISA); assay type: in vivo; conditions: for NSE activity (dynamics of neurodestructive changes): acute cerebral hemorrhage, n = 7; for enzyme activity decreased in relation to the control pathology group / efficiency in reducing NSE better than citocoline: hemorrhage
Description: The derivative of 3,2′-spiro-pyrrolo-2-oxindole was investigated in conventionally effective dose of 10 mg/kg […] (iv)—dose that according to the results of our previous studies provided maximum antihypoxic activity of SI-86 compound. Reference drugs were injected intraperitoneally (ip). […] Autoblood was injected to rats with control pathology and 0.9% NaCI solution was administered as therapy calculated for 2 ml/kg ip.
Psevdooperated rats were exposed to all interventions (anesthesia, craniotomy) with the exception of autoblood administration that leveled traumatic impact of experimental conditions.
To determine neuron-specific enolase, the specific marker of cerebral ischemia,—for corresponding period (4 th and 21 st day of CVA) in rats, blood was sampled by sagittal sinus puncture (0.2-0.4 ml). NSE activity was measured by ELISA using a set NSE EIA KIT (DAI, USA) on the instrument of the company “Hipson” (Czech Republic).

rats [3] = experiment: Acute toxicity in rats; assay type: in vivo; conditions: for Effect (died/total): 2 weeks observation
Description: (§1) The acute toxicity study was conducted when administered compounds SI-86 to rats into the stomach at doses of 3500 and 4000 mg/kg. Each dose was tested in 4 animals. The duration of observation of rats after administration of test compound was 2 weeks.

Acute toxicity in rats = assay type: in vivo; conditions: rat, in vivo, oral; rats
Description: as §1

liver and pancrea cells = experiment: Pro/antiapoptosis properties, electrophoresis of DNA fragments; assay type: in vivo; conditions: intact male Wistar rats; 50 mg/kg
Description: The assessment of pro/antiapoptotosis properties of substances was carried in intact male rats of Wistar line. The test substance were administered for 2 weeks by means of a probe in aqueous suspension containing Tween-80 at a dose of 50 mg/kg of body weight. The animals were euthanized by cervical vertebrae translocation 24 hours after the experiment. The identification of apoptosis of liver and pancrea cells was performed using electrophoretic method. […] Cell necrosis conditioned the “smeared” nature of DNA migration zone. The luminescence band of intact DNA was in the starting area.
The expression of apoptosis manifestations was assessed by registration of DNA fragments via electrophoresis.

11β-corticosterone [4] = experiment: 11β-corticosterone level in venous blood of rats with bilateral carotid occlusion (ELISA); assay type: in vivo, Wistar rats; conditions: for dynamics in percents in relation to control pathology group / dynamics in percents in relation to the group of pseudo-operated animals / 11β-corticosterone level in venous blood: BCO
Description: The neuroprotective effect of 3,2′-spiro-pyrrolo-2-oxindole derivative (SI-86 compound) was studied in Wistar rats on a model of cerebrovascular accident (CVA) of ischemic type in archencephalic pool forming bilateral carotid occlusion (BCO) by carotid artery ligation. The ligations for common carotid arteries was imposed under propofol anesthesia at a dose of 60 mg/kg intraperitoneally (ip), using surgical access to the front of the neck cutting through its white line. The chosen model allows to reproduce the clinical pattern of ischemic stroke and is adequate for clinical study of potential neuroprotective substances (Drug discovery and Evaluation: pharmacological assays/H. Gerhard Vogel (ed.).-2nd ed. 1453p.).
The derivative of 3,2′-spiro-pyrrolo-2-oxindole was investigated in conventionally effective dose of 10 mg/kg […] (iv)—dose which is provided maximum antihypoxic activity of SI-86 compound by the results of our previous study. The reference drugs were injected intraperitoneally (ip). BCO was applied to the rats of control pathology and 0.9% NaCI solution was administered as therapy calculated for 2 ml/kg ip.
(§2) Pseudo-operated rats were exposed to all interventions (anesthesia, skin incision, dissection of vessels) except arteries ligation that leveled traumatic impact of experimental conditions.
(§3) To determine a corticosterone level (species-specific cortisol analogue in rats, which is also a substrate for 11β-HSD1) in the corresponding period (4 th and 21 st CVA day) in rat by sagittal sinus puncture, blood was sampled (0.2-0.4 ml). The cortisol level was measured by ELISA using a CORTICOSTERONEE KIT set (Germany) on the instrument of the company “Hipson” (Czech Republic).

11β-corticosterone [5] = experiment: 11β-corticosterone level in venous blood of pseudo-operated rats (ELISA); assay type: in vivo, Wistar rats; conditions: pseudo-operated animals + SI-86 10 mg/kg iv
Description: as §2, §3
To establish the effect of course administration of SI-86 compound on steroid synthesis in animals without cerebral ischemia the dynamics of its level in pseudo-operated rats in the same period was additionally determined.

[6] = day 4, SI-86 10 mg/kg iv, citocoline 250 mg/kg ip

SMILES: CSCC[C@@H]1N[C@@]2(C(=O)Nc3ccccc32)[C@@H]2C(=O)N(c3ccc(C)cc3)C(=O)[C@H]12 [SI-86, 5′-(4-Methylphenyl)-3′-[2-(methylthio)ethyl]-3a′,6a′-dihydro-2′H-spiro[indole-3,1′-pyrrolo[3,4-c]pyrrol]-2,4′,6′(1H,3′H,5′H)-trione]
- increase of life duration in rats in relation to control (rats [1]): 33.7%
- NSE activity (dynamics of neurodestructive changes) [2, 6]: 1.065 ± 0.019*^#•
- NSE activity (dynamics of neurodestructive changes) ([2]; day 21, same doses): 0.260 ± 0.014*^#•
- enzyme activity decreased in relation to the control pathology group ([2]; 96 hours): 2.6 times
- enzyme activity decreased in relation to the control pathology group ([2]; 21 days): 3.6 times
- efficiency in reducing NSE better than citocoline ([2]; acute period): 17.6%
- efficiency in reducing NSE better than citocoline ([2]; recovery period): 15.9%
- Effect (died/total) (rats [3]; 3500 mg/kg single administration): all animals survived and 0/4
- rats died (rats [3]; 4000 mg/kg): 25%
- Effect (died/total) (rats [3]; 4000 mg/kg single administration): 1/4
- toxicity class according to Hodge and Sterner classification (rats [3]; rat, in vivo): IV class of toxicity
- LD50 at 2 weeks (Acute toxicity in rats): 501 to 5000 mg/kg
- level of apoptosis (liver and pancrea cells): closed to that of control group
- dynamics in percents in relation to control pathology group (11β-corticosterone [4]; day 4): [−60.2%]
- dynamics in percents in relation to the group of pseudo-operated animals (11β-corticosterone [4]; day 4): (+54.8%)
- 11β-corticosterone level in venous blood (11β-corticosterone [4]; [6]): 186.12 ± 1.43°*^# ng/ml
- dynamics in percents in relation to control pathology group (11β-corticosterone [4]; day 21): [−57.1%]
- dynamics in percents in relation to the group of pseudo-operated animals (11β-corticosterone [4]; day 21): (+55.2%)
- 11β-corticosterone level in venous blood (11β-corticosterone [4]; day 21, same doses): 144.67 ± 3.43°*^#• ng/ml
- ability to reduce corticosterone content, better than citocoline (11β-corticosterone [4]; CVA acute period): 1.46 times
- corticosterone concentration in sagittal sinus blood decreased in relation to the control pathology group (11β-corticosterone [4]; after 96 hours): 60.2%
- corticosterone concentration in sagittal sinus blood decreased in relation to the control pathology group (11β-corticosterone [4]; after 21 days): 57.1%
- ability to reduce corticosterone content, better than citocoline (11β-corticosterone [4]; recovery period): 1.62 times
- 11β-corticosterone level in venous blood (11β-corticosterone [5]; day 4): 81.95 ± 0.61 ng/mL
- dynamics in percents in relation to the group of pseudo-operated animals (11β-corticosterone [5]; day 4): (−31.9%)
- 11β-corticosterone level in venous blood (11β-corticosterone [5]; day 21): 83.02 ± 4.25 ng/mL
- dynamics in percents in relation to the group of pseudo-operated animals (11β-corticosterone [5]; day 21): (−10.2%)
